# Assay results published in patent US11198869B2, “Angelman syndrome antisense treatment” (The Texas A&M University System, priority 2017, dated 2021).
# Tested on: UBE3A-AS
# Assay: UBE3A-AS RNA levels in CNS regions of Cynomolgus macaque after intrathecal lumbar puncture (SYBR Green qRT-PCR)
# Format: in vivo, Cynomolgus macaque (Macaca fascicularis)
# Conditions: for UBE3A-AS RNA levels in CNS regions (in words) / Cohen's d, effect size on UBE3A-AS RNA levels in CNS: 10 mg single intrathecal bolus, 28 days; for Difference in UBE3A-AS RNA levels relative to vehicle: Cynomolgus macaque, single 10 mg intrathecal lumbar puncture, 28 days after treatment
# Method: The ASO-4 and ASO-6 target regions are conserved across several non-human primate (NHP) species, thus enabling both safety and efficacy studies in a large animal model. To examine the efficacy of ASO-4.4.PS.L and ASO-6.1.PO-1.O in the central nervous system (CNS), ASOs were delivered to Cynomolgus macaques by intrathecal lumbar puncture. Animals were administered a single bolus injection of vehicle (0.9% saline, n=5), ASO-6.1.PO-1.O (10 mg, n=3), and ASO.4.4.PS.L (10 mg, n=3). Twenty-eight days following treatment, central nervous (CNS) tissues were collected and the steady state RNA levels of UBE3A-AS were measured.
# NHP studies were performed at Northern Biomedical Research and Charles River Laboratories using protocols approved by the institutions respective Institutional Animal Care and Use Committees. Male and female Cynomolgus macaques (Macaca fascicularis) weighing 2-4 kg were anesthetized and single 1 mL dose of ASO or vehicle was administered via intrathecal lumbar puncture. The dosing solution was prepared by dissolution of lyophilized ASO in the vehicle control article (0.9% sodium chloride) and was filtered through a 0.2-μm filter. CNS and spinal cord samples were harvested, and the CNS was sectioned into 4-mm coronal slices. Tissue samples were flash frozen and stored at −80° C. until RNA isolation.
# A 4 mm tissue punch was taken from each region of interest of which approximately half was used for RNA isolation. RNA isolation was performed using the Qiagen RNeasy Plus Mini kit (74136, Qiagen) with tissue disruption and lysis performed with 5 mm stainless steel beads in a TissueLyser II. The RNA was eluted in two volumes of 30 μl water, for a total elution volume of 60 μl. RNA was quantified using the Qubit with the RNA XR assay (Q33224, Thermo Fisher Scientific). cDNA was synthesized from 2 μg of input RNA using the High Capacity RNA-to-cDNA kit (4387406, Thermo Fisher Scientific) in a total reaction volume of 50 μl.
# Cynomolgus macaque UBE3A-AS RNA levels were estimated using SYBR Green quantitative reverse-transcription PCR (qRT-PCR). Total reaction volume was 10 μl, including 2 μl of cDNA, 1× PowerUp SYBR Green Master mix (A25741, Thermo Fisher Scientific), and 500 nM of each primer (forward and reverse). Cycling conditions were 2 minutes at 50° C., 2 minutes at 95° C., and 40 cycles of 15 seconds at 95° C. and 1 minute at 60° C., with readings taken at the 60° C. step of every cycle. Reactions were run on a BIO-RAD T1000 CFX96 thermocycler, with internal control (PPIA, forward: […] (SEQ ID NO:503); reverse: […] (SEQ ID NO:504)) and target (UBE3A-AS, forward: […] (SEQ ID NO:505); reverse: […] (SEQ ID NO:506)) reactions performed separately. Data was retrieved and initial analysis was done with the BIORAD CFX Maestro software, with in depth statistical analyses performed with Excel and JMP.
# [1] = Frontal Cortex (Corona radiata)
Substance,UBE3A-AS RNA levels in CNS regions (in words),"Cohen's d, effect size on UBE3A-AS RNA levels in CNS (versus ASO-6.1.PO-1.O)","Cohen's d, effect size on UBE3A-AS RNA levels in CNS (versus Vehicle)",Difference in UBE3A-AS RNA levels relative to vehicle (Caudate Nucleus),Difference in UBE3A-AS RNA levels relative to vehicle (Cerebellum),Difference in UBE3A-AS RNA levels relative to vehicle [1],Difference in UBE3A-AS RNA levels relative to vehicle (Frontal cortex),Difference in UBE3A-AS RNA levels relative to vehicle (Globus Pallidus),Difference in UBE3A-AS RNA levels relative to vehicle (Hippocampus),Difference in UBE3A-AS RNA levels relative to vehicle (Medulla),Difference in UBE3A-AS RNA levels relative to vehicle (Motor Cortex),Difference in UBE3A-AS RNA levels relative to vehicle (Oculomotor Nucleus),Difference in UBE3A-AS RNA levels relative to vehicle (Pons),Difference in UBE3A-AS RNA levels relative to vehicle (Putamen),Difference in UBE3A-AS RNA levels relative to vehicle (Spinal Cord (Lumbar)),Difference in UBE3A-AS RNA levels relative to vehicle (Temporal Lobe),Difference in UBE3A-AS RNA levels relative to vehicle (Thalamus)
"A^L*G^L*A^L*a*t*g*g*c*a*c*a*t*c*t*5mC^L*T^L*T^L*G^L (NNNATGGCACATCTNNNN; LNA gapmer, PS, 5-methylcytosine, chemistry not fully specified) [ASO-4.4.PS.L]","reduced UBE3A-AS RNA in most CNS regions, with large effects in temporal lobe, primary motor cortex, pons, medulla, hippocampus, globus pallidus, frontal cortex (corona radiata), prefrontal cortex, and lumbar spinal cord",1.0,1.4,−0.21,−0.05,−0.62,−0.71,−0.38,−0.57,−0.32,−0.59,−0.18,−0.47,−0.04,−0.87,−0.59,−0.20
C^O*U^O*G^O*G^O-t*g*t*c*a*a*c*a*a*g-C^O*C^O*A^O*A^o [ASO-6.1.PO-1.O],"reduced UBE3A-AS RNA levels in most CNS regions, with large effects observed in pons, oculomotor nucleus, and lumbar spinal cord",,0.3,0.10,−0.11,−0.08,0.01,0.10,−0.19,−0.24,−0.19,−0.37,−0.27,0.07,−0.32,0.13,−0.02
